This passage reports pest or weed control and MIC results from patent publication US9221791B2, “Metalloenzyme inhibitor compounds” (Viamet Pharmaceuticals, Inc., priority 2011, dated 2015).

Experiment [1] has as its system Puccinia recondita tritici = Puccinia triticina. Kind of experiment: Fungicidal activity vs. leaf rust on wheat plants. The experiment is classed as in vivo. The note with it: wheat (variety Yuma) sprayed at 50 ppm, inoculated on the following day, evaluated 7-9 days later; read-out: Puccinia Rating (% Disease Control @ 50 ppm). The text has this: D. Evaluation of Fungicidal Activity Vs. Leaf Rust (Causal Agent Puccinia recondita tritici=Puccinia triticina; Bayer Code PUCCRT). […] Each pot contained 3-8 seedlings. These plants were sprayed until wet with the formulated test compounds. The compounds were formulated at 50 ppm in 10 vol. % acetone plus 90 vol. % Triton X water (deionized water 99.99 wt %+0.01 wt % Triton X100), giving a “formulated test compound.” Formulated test compounds were applied to plants using a turn table sprayer fitted with two opposing air atomization nozzles which delivered approximately 1500 L/ha of spray volume. On the following day, the leaves were inoculated with an aqueous spore suspension of Puccinia recondita tritici and the plants were kept in high humidity overnight to permit spores to germinate and infect the leaf. The plants were then transferred to a greenhouse until disease developed on untreated control plants. Disease severity was evaluated 7-9 days later, depending on the speed of disease development. In each case of Table 3, the Puccinia rating scale is as follows: […]

Experiment [2] deals with Septoria tritici (ATCC 26517). Put plainly: Minimum Inhibitory Concentration (MIC) (Septoria tritici), CLSI-based microdilution. Type of experiment: cell-based. The following applies: Zymoseptoria tritici, ATCC26517, 168 h, S. tritici ATCC 26517; 22° C. for seven days; 50% reduction in growth; read-out: Septoria Rating (MIC). As to the method: C. Minimum Inhibitory Concentration (MIC) (Septoria tritici)
Compounds of the present disclosure were assessed for their ability to inhibit the growth of a common strain of the fungal plant pathogen Septoria tritici (ATCC 26517) using a procedure based on a Clinical and Laboratory Standards Institute (CLSI) microdilution assay protocol for filamentous fungi.
Stock solutions of the test compounds and standards were prepared in DMSO at 6400 μg/mL. Each stock solution was used to prepare a 2-fold dilution series ranging from 16 to 0.016 μg/mL (total of 11 compound concentrations) in RPMI-1640 (Roswell Park Memorial Institute) medium containing 3-(N-morpholino)propanesulfonic acid (MOPS) buffer and 2% DMSO. A 100 μL aliquot of the dilutions was added to columns 1 (16 μg/mL compound) through 11 (0.016 μg/mL compound) of a 96-well microtiter plate. This format was replicated in a second row of the microtiter plate. Thus, each microtiter plate could include 11 concentrations of four test or control compounds replicated twice. A 100 μL aliquot of RPMI-1640/MOPS/2% DMSO medium was added to column 12 (no compound control) of the microtiter plate.
A fresh culture of S. tritici was used to prepare a solution of approximately 5×10^4 colony-forming units per milliliter (cfu/mL) in RPMI/MOPS medium without DMSO. A 100 µL aliquot of this solution was added to all 96 wells in the microtiter plate. […] The assay plates were incubated at 22° C. for seven days in the dark without shaking.
In each case of Table 3 the Septoria rating scale is as follows: […]
Background: In broth dilution the organism is exposed to a series of concentrations in liquid medium.

≈ marks a conversion by molar mass, not a printed value.

For `OC(Cn1cnnn1)(c1ccc(Cl)cc1F)C(F)(F)c1ccc(-n2nccn2)cn1` (stereo not shown) [Compound 28, 1-(5-(2H-1,2,3-Triazol-2-yl)pyridin-2-yl)-2-(4-chloro-2-fluorophenyl)-1,1-difluoro-3-(1H-tetrazol-1-yl)propan-2-ol], in experiment [1], the pest or weed control at 50 ppm lay in the range of 80 to 100%. The MIC (usually the smallest concentration in the dilution series that meets the test's criterion for growth inhibition) in experiment [2] is at most 0.5 µg/mL.
`OC(Cn1cncn1)(c1ccc(F)cc1F)C(F)(F)c1ccc(Cl)cn1` (stereo not shown) [Compound 29, 1-(5-Chloropyridin-2-yl)-2-(2,4-difluorophenyl)-1,1-difluoro-3-(1H-1,2,4-triazol-1-yl)propan-2-ol]: the pest or weed control at 50 ppm in experiment [1] lay within 80 to 100%. Also, in experiment [2], the MIC was at most 0.5 µg/mL.
Turning to `COc1ccc(-c2ccc(C(F)(F)C(O)(Cn3cnnn3)c3ccc(F)cc3F)nc2)s1` (stereo not shown) [Compound 32, 2-(2,4-Difluorophenyl)-1,1-difluoro-1-(5-(5-methoxythiophen-2-yl)pyridin-2-yl)-3-(1H-tetrazol-1-yl)propan-2-ol], the pest or weed control at 50 ppm in experiment [1] was 40 to 59%. The MIC in experiment [2] is at most 0.5 µg/mL.
On to `OC(Cn1cnnn1)(c1ccc(F)cc1F)C(F)(F)c1ccc(-c2ccc(C(F)F)s2)cn1` (stereo not shown) [Compound 33, 1-(5-(5-(Difluoromethyl)thiophen-2-yl)pyridin-2-yl)-2-(2,4-difluorophenyl)-1,1-difluoro-3-(1H-tetrazol-1-yl)propan-2-ol], for which the pest or weed control at 50 ppm in experiment [1] lay within 80 to 100%. For the same compound, the MIC in experiment [2] was at most 0.5 µg/mL.
For the compound `OC(Cn1cnnn1)(c1ccc(F)cc1F)C(F)(F)c1ccc(-c2ccc(C(F)(F)F)s2)cn1` (stereo not shown) [Compound 34, 2-(2,4-Difluorophenyl)-1,1-difluoro-3-(1H-tetrazol-1-yl)-1-(5-(5-(trifluoromethyl)thiophen-2-yl)pyridin-2-yl)propan-2-ol], in experiment [1], the pest or weed control at 50 ppm was 80 to 100%. Also, the MIC in experiment [2] stood at 1.5 µg/mL (≈ 2.98 µM).
With `OC(Cn1cnnn1)(c1ccc(F)cc1F)C(F)(F)c1ccc(-c2nccs2)cn1` (stereo not shown) [Compound 38, 2-(2,4-Difluorophenyl)-1,1-difluoro-3-(1H-tetrazol-1-yl)-1-(5-(thiazol-2-yl)pyridin-2-yl)propan-2-ol], the pest or weed control at 50 ppm in experiment [1] is 80 to 100%. The MIC in experiment [2] was at most 0.5 µg/mL.
Turning to `OC(Cn1cnnn1)(c1ccc(Cl)cc1F)C(F)(F)c1ccc(CC(F)(F)F)cn1` (stereo not shown) [Compound 39, 2-(4-Chloro-2-fluorophenyl)-1,1-difluoro-3-(1H-tetrazol-1-yl)-1-(5-(2,2,2-trifluoroethyl)pyridin-2-yl)propan-2-ol], in experiment [1], the pest or weed control at 50 ppm was 80 to 100%. In addition, the MIC in experiment [2] was at most 0.5 µg/mL.
As for `OC(Cn1cnnn1)(c1ccc(Cl)cc1F)C(F)(F)c1ccc(C2CC2)cn1` (stereo not shown) [Compound 40, 2-(4-Chloro-2-fluorophenyl)-1-(5-cyclopropylpyridin-2-yl)-1,1-difluoro-3-(1H-tetrazol-1-yl)propan-2-ol], the pest or weed control at 50 ppm in experiment [1] is 80 to 100%. In experiment [2], the MIC was at most 0.5 µg/mL.
For `OC(Cn1cnnn1)(c1ccc(F)cc1F)C(F)(F)c1ccc(CCCOCC(F)(F)F)cn1` (stereo not shown) [Compound 45, 2-(2,4-Difluorophenyl)-1,1-difluoro-3-(1H-tetrazol-1-yl)-1-(5-(3-(2,2,2-trifluoroethoxy)propyl)pyridin-2-yl)propan-2-ol] the same measures were 80 to 100% and at most 0.5 µg/mL.
For `CCOC/C=C/c1ccc(C(F)(F)C(O)(Cn2cnnn2)c2ccc(F)cc2F)nc1` (stereo not shown) [Compound 51, (E)-2-(2,4-Difluorophenyl)-1-(5-(3-ethoxyprop-1-en-1-yl)pyridin-2-yl)-1,1-difluoro-3-(1H-tetrazol-1-yl)propan-2-ol] the same measures were below 40% and at most 0.5 µg/mL.
For the compound `CCOC/C=C\c1ccc(C(F)(F)C(O)(Cn2cnnn2)c2ccc(F)cc2F)nc1` (stereo not shown) [Compound 52, (Z)-2-(2,4-Difluorophenyl)-1-(5-(3-ethoxyprop-1-en-1-yl)pyridin-2-yl)-1,1-difluoro-3-(1H-tetrazol-1-yl)propan-2-ol], in experiment [1], the pest or weed control at 50 ppm is below 40%. For the same compound, the MIC in experiment [2] was at most 0.5 µg/mL.
For `CCOCCCc1ccc(C(F)(F)C(O)(Cn2cnnn2)c2ccc(F)cc2F)nc1` (stereo not shown) [Compound 53, 2-(2,4-Difluorophenyl)-1-(5-(3-ethoxypropyl)pyridin-2-yl)-1,1-difluoro-3-(1H-tetrazol-1-yl)propan-2-ol] the same measures were 80 to 100% and at most 0.5 µg/mL.
As for `CC(C)OC/C=C/c1ccc(C(F)(F)C(O)(Cn2cnnn2)c2ccc(F)cc2F)nc1` (stereo not shown) [Compound 54, (E)-2-(2,4-Difluorophenyl)-1,1-difluoro-1-(5-(3-isopropoxyprop-1-en-1-yl)pyridin-2-yl)-3-(1H-tetrazol-1-yl)propan-2-ol], the pest or weed control at 50 ppm in experiment [1] was below 40%. The MIC in experiment [2] stood at 1.5 µg/mL (≈ 3.32 µM).
For `OC(Cn1cnnn1)(c1ccc(F)cc1F)C(F)(F)c1ccc(CC2CC2)cn1` (stereo not shown) [Compound 59, 1-(5-(Cyclopropylmethyl)pyridin-2-yl)-2-(2,4-difluorophenyl)-1,1-difluoro-3-(1H-tetrazol-1-yl)propan-2-ol] the same measures were 80 to 100% and at most 0.5 µg/mL.
For `OC(Cn1cnnn1)(c1ccc(Cl)cc1F)C(F)(F)c1ccc(CC2CC2)cn1` (stereo not shown) [Compound 60, 2-(4-Chloro-2-fluorophenyl)-1-(5-(cyclopropylmethyl)pyridin-2-yl)-1,1-difluoro-3-(1H-tetrazol-1-yl)propan-2-ol] the same measures were 80 to 100% and at most 0.5 µg/mL.
For `O=C(c1ccc(C(F)(F)F)cc1)c1ccc(C(F)(F)C(O)(Cn2cnnn2)c2ccc(F)cc2F)nc1` (stereo not shown) [Compound 66, (6-(2-(2,4-Difluorophenyl)-1,1-difluoro-2-hydroxy-3-(1H-tetrazol-1-yl)propyl)pyridin-3-yl)(4-(trifluoromethyl)phenyl)methanone] the same measures were 80 to 100% and at most 0.5 µg/mL.
For `O=C(c1ccc(Cl)cc1)c1ccc(C(F)(F)C(O)(Cn2cnnn2)c2ccc(F)cc2F)nc1` (stereo not shown) [Compound 67, (4-Chlorophenyl)(6-(2-(2,4-difluorophenyl)-1,1-difluoro-2-hydroxy-3-(1H-tetrazol-1-yl)propyl)pyridin-3-yl)methanone], the pest or weed control at 50 ppm in experiment [1] was 80 to 100%. For the same compound, the minimum inhibitory concentration (MIC) in experiment [2] is at most 0.5 µg/mL.
On to `O=C(c1ccc(OCC(F)(F)F)cc1)c1ccc(C(F)(F)C(O)(Cn2cnnn2)c2ccc(F)cc2F)nc1` (stereo not shown) [Compound 68, (6-(2-(2,4-Difluorophenyl)-1,1-difluoro-2-hydroxy-3-(1H-tetrazol-1-yl)propyl)pyridin-3-yl)(4-(2,2,2-trifluoroethoxy)phenyl)methanone], for which the pest or weed control at 50 ppm in experiment [1] is 80 to 100%. The MIC in experiment [2] was at most 0.5 µg/mL.
Consider `O=C(c1ccc(F)cc1)c1ccc(C(F)(F)C(O)(Cn2cnnn2)c2ccc(F)cc2F)nc1` (stereo not shown) [Compound 69, (6-(2-(2,4-Difluorophenyl)-1,1-difluoro-2-hydroxy-3-(1H-tetrazol-1-yl)propyl)pyridin-3-yl)(4-fluorophenyl)methanone], for which the pest or weed control at 50 ppm in experiment [1] lay in the range of 80 to 100%. Besides, in experiment [2], the MIC is at most 0.5 µg/mL.
The corresponding values for `O=C(c1ccc(C(F)(F)C(O)(Cn2cnnn2)c2ccc(F)cc2F)nc1)c1ccc(Cl)c(F)c1` (stereo not shown) [Compound 71, (4-Chloro-3-fluorophenyl)(6-(2-(2,4-difluorophenyl)-1,1-difluoro-2-hydroxy-3-(1H-tetrazol-1-yl)propyl)pyridin-3-yl)methanone] are 80 to 100% and at most 0.5 µg/mL.
For `OC(Cn1cnnn1)(c1ccc(F)cc1F)C(F)(F)c1ccc(Cc2ccc(C(F)(F)F)cc2)cn1` (stereo not shown) [Compound 73, 2-(2,4-Difluorophenyl)-1,1-difluoro-3-(1H-tetrazol-1-yl)-1-(5-(4-(trifluoromethyl)benzyl)pyridin-2-yl)propan-2-ol] the same measures were 80 to 100% and at most 0.5 µg/mL.
With `OC(Cn1cnnn1)(c1ccc(F)cc1F)C(F)(F)c1ccc(Cc2ccccc2)cn1` (stereo not shown) [Compound 75, 1-(5-Benzylpyridin-2-yl)-2-(2,4-difluorophenyl)-1,1-difluoro-3-(1H-tetrazol-1-yl)propan-2-ol], in experiment [1], the pest or weed control at 50 ppm was 80 to 100%. For the same compound, the MIC in experiment [2] is at most 0.5 µg/mL.
In the case of `OC(Cn1cnnn1)(c1ccc(F)cc1F)C(F)(F)c1ccc(Cc2ccc(OC(F)(F)F)cc2)cn1` (stereo not shown) [Compound 76, 2-(2,4-Difluorophenyl)-1,1-difluoro-3-(1H-tetrazol-1-yl)-1-(5-(4-(trifluoromethoxy)benzyl)pyridin-2-yl)propan-2-ol], the pest or weed control at 50 ppm in experiment [1] lay within 80 to 100%. Also, the MIC in experiment [2] was at most 0.5 µg/mL.
